Results on three substances are retold here after article PMC3982558, “Influence of the π-coordinated arene on the anticancer activity of ruthenium(II) carbohydrate organometallic complexes” (Frontiers in Chemistry, 2013).

For the experiment, the target named is T1, cathepsin B (Bos taurus, UniProt P07688).
T1 construct: gene CTSB; Crude bovine spleen cathepsin B (Sigma C6286)
The experiment is described as follows: colorimetric cathepsin B assay (Na-CBZ-L-lysine p-nitrophenyl ester), […] h preincubation. It counts as biochemical. As to conditions: read-out: IC50 values/μM Cat B.

“Dichlorido(η^6-biphenyl)(3,5,6-bicyclophosphite-1,2-O-cyclohexylidene-α-D-glucofuranose)ruthenium(II) [compound 6]”: the IC50 stood at 8 ± 0.4 µM.

For the substance “dichlorido(η^6-p-cymene)(3,5,6-bicyclophosphite-1,2-O-cyclohexylidene-α-D-glucofuranoside)ruthenium(II) [1b]”, the IC50 was found to be 4 ± 0.6 µM.

As for “dichlorido(η^6-p-cymene)(3,5,6-bicyclophosphite-1,2-O-isopropylidene-α-D-glucofuranose)ruthenium(II) [1a]”, the IC50 was 1.5 ± 0.2 µM.
